Test results reported in ChEMBL document CHEMBL3045937, “Synthesis and hypoglycemic activity evaluation of 7-alkoxyl-rhein” (2012).

Experiments:
[1] = organism: Homo sapiens; assay: Inhibition of alpha-glucoamylase (unknown origin) assessed as 1-Ki/Kc X 100% at 100 mg/l after 10 min spectrophotometry
[2] = Inhibition of alpha-glucoamylase (unknown origin) assessed as Ki/Kc at 100 mg/l after 10 min spectrophotometry; values are per cent of control; conditions: Homo sapiens
[3] = system: Mus musculus; assay: Hypoglycemic activity in alloxan-induced diabetic Mus musculus (mouse) assessed as blood glucose level at 10 mg/kg, qd for 14 days measured on 7th day (reference value: 19.79 +/- 1.28 mmol/l); format: functional
[4] = system: Mus musculus; assay: Hypoglycemic activity in alloxan-induced diabetic Mus musculus (mouse) assessed as blood glucose level at 10 mg/kg, qd for 14 days measured on 14th day (reference value: 19.04 +/- 1.27 mmol/l); format: functional
[5] = system: Mus musculus; assay: Hypoglycemic activity in alloxan-induced diabetic Mus musculus (mouse) assessed as blood glucose level at 20 mg/kg, qd for 14 days measured on 7th day (reference value: 19.79 +/- 1.28 mmol/l); format: functional
[6] = system: Mus musculus; assay: Hypoglycemic activity in alloxan-induced diabetic Mus musculus (mouse) assessed as blood glucose level at 50 mg/kg, qd for 14 days measured on 14th day (reference value: 19.04 +/- 1.27 mmol/l); format: functional
[7] = system: Mus musculus; assay: Hypoglycemic activity in alloxan-induced diabetic Mus musculus (mouse) assessed as blood glucose level at 20 mg/kg, qd for 14 days measured on 14th day (reference value: 19.04 +/- 1.27 mmol/l); format: functional
[8] = system: Mus musculus; assay: Hypoglycemic activity in alloxan-induced diabetic Mus musculus (mouse) assessed as blood glucose level at 50 mg/kg, qd for 14 days measured on 7th day (reference value: 19.79 +/- 1.28 mmol/l); format: functional

Structure (SMILES)	inhibition [1]	residual activity [2]	Activity [3]	Activity [4]	Activity [5]	Activity [6]	Activity [7]	Activity [8]
CCCCOc1cc(O)c2c(c1)C(=O)c1cc(C(=O)O)cc(O)c1C2=O	45%	55%						
CCCCCCCCCCCCOc1cc(O)c2c(c1)C(=O)c1cc(C(=O)O)cc(O)c1C2=O	50.7%	49.3%						
CCCCCCOc1cc(O)c2c(c1)C(=O)c1cc(C(=O)O)cc(O)c1C2=O	54.5%	45.5%						
C[C@H]1O[C@H](O[C@H]2[C@H](O)[C@@H](O)[C@@H](O[C@H]3[C@H](O)[C@@H](O)C(O)O[C@@H]3CO)O[C@@H]2CO)[C@H](O)[C@@H](O)[C@@H]1N[C@H]1C=C(CO)[C@@H](O)[C@H](O)[C@H]1O (some centres not stated) [ACARBOSE]	91.4%	8.6%	10.58 mmol/L	6.87 mmol/L				
Cc1cc(O)c2c(c1)C(=O)c1cc(O)cc(O)c1C2=O	23.6%	76.4%						
CCCCCCCCOc1cc(O)c2c(c1)C(=O)c1cc(C(=O)O)cc(O)c1C2=O	60.6%	39.4%	17.05 mmol/L	12.03 mmol/L	16.79 mmol/L	7.03 mmol/L	10.04 mmol/L	10.05 mmol/L
CCCCCCCCCCCCCCCCOc1cc(O)c2c(c1)C(=O)c1cc(C(=O)O)cc(O)c1C2=O	29.8%	70.2%						
